Data: article PMC8989888, “Development of optimized drug-like small molecule inhibitors of the SARS-CoV-2 3CL protease for treatment of COVID-19” (Nature Communications, 2022)
Values joined by “and” are separate entries in the source; they are usually repeats but may differ in a detail not shown here. Equal entries are not always repeated. Where two headings read alike, the source gives them in different places.

Experiments:
[1] = target: T1, SARS-CoV-2 3CL protease (Severe acute respiratory syndrome coronavirus 2, UniProt P0DTD1); test: biochemical
[2] = target: T1, SARS-CoV-2 3CL protease; test: biochemical; details: for kinact/KI: read-out: SARS-CoV-2 3CLpro kinact/KI
[3] = system: SARS-CoV-2; test: microbe, parasite or virus in culture; format: cell-based; details: for EC50: Severe acute respiratory syndrome coronavirus 2, 24 h, read-out: SARS-CoV-2 Huh-7ACE2 EC50
[4] = 0.2 µM protease with 50 µM tested compound, replicates
[5] = 200 nM protease, read-out: IC50
[6] = 20 nM protease, read-out: SARS-CoV-2 3CLpro IC50
[7] = Concentration of inhibitor (nM) 0.19382
[8] = Concentration of inhibitor (nM) 0.49485
[9] = Concentration of inhibitor (nM) 0.79588
[10] = Concentration of inhibitor (nM) 1.09691
[11] = Concentration of inhibitor (nM) 1.39794
[12] = Concentration of inhibitor (nM) 1.69897
[13] = Concentration of inhibitor (nM) 2
[14] = Concentration of inhibitor (nM) 2.30103
[15] = Concentration of inhibitor (nM) -0.10721
[16] = Concentration of inhibitor (nM) -0.40824
[17] = Concentration of inhibitor (nM) 2.60206

COc1ccc(CNS(=O)(=O)c2cccnc2)cc1 [AZVIII-44H]
Normalized SARS-CoV-2 3CL protease activity [1, 4]: 0.9803 and 0.9852 and 1.015
IC50 [1, 5]: > 50000 nM

O=S(=O)(NCc1ccncn1)c1cccnc1 [AZVIII-49C]
Normalized SARS-CoV-2 3CL protease activity [1, 4]: 1.015 and 1.0173 and 1.005
IC50 [1, 5]: > 50000 nM

O=S(=O)(NCc1ccncn1)c1ccccc1 [AZVIII-49F]
Normalized SARS-CoV-2 3CL protease activity [1, 4]: 1.058 and 1.081 and 1.099
IC50 [1, 5]: > 50000 nM

O=CCN(Cc1ccccc1)S(=O)(=O)c1ccccc1 [AZVIII-57D]
Normalized SARS-CoV-2 3CL protease activity [1, 4]: 1.196 and 1.186 and 0.9817
IC50 [1, 5]: > 50000 nM

COc1ccc(S(=O)(=O)N(CC=O)Cc2ccccc2)cc1 [AZVIII-57G]
Normalized SARS-CoV-2 3CL protease activity [1, 4]: 1.117 (2×) and 1.175 (2×) and 1.168 (2×)
IC50 [1, 5]: > 50000 nM

O=C(N[C@@H](CC1CC1)C(=O)N[C@@H](C[C@@H]1CCNC1=O)C(O)S(=O)(=O)O)OCc1ccccc1 (stereo partly shown) [NK01-14]
observed inactivation rate vs compound concentration (Figure S19, replicate values) [2]: 0.0144 and -0.00118 and 0.0245 and 0.0068 and 0.0252 and 0.0272 and 0.0287 and 0.0225 and 0.0192 and -0.00612 and 0.0023 and 0.0187
kinact/KI [2]: 71700 M⁻¹ s⁻¹
IC50 [1, 6]: 22 nM
normalized activity, dose-response curve (Figure S16) [1, 7]: 88.3287 and 88.0525
normalized activity, dose-response curve (Figure S16) [1, 8]: 79.1436 and 83.9088
normalized activity, dose-response curve (Figure S16) [1, 9]: 76.0359 and 72.2376
normalized activity, dose-response curve (Figure S16) [1, 10]: 63.3978 and 55.1105
normalized activity, dose-response curve (Figure S16) [1, 11]: 56.2155 and 53.3149
normalized activity, dose-response curve (Figure S16) [1, 12]: 37.1547 and 46.616
normalized activity, dose-response curve (Figure S16) [1, 13]: 24.2403 and 25.2762
normalized activity, dose-response curve (Figure S16) [1, 14]: 7.666 and 9.392
normalized activity, dose-response curve (Figure S16) [1, 15]: 96.8923 and 94.268
normalized activity, dose-response curve (Figure S16) [1, 16]: 109.254 and 100
inhibition of SARS-CoV-2 (Figure s17b dose-response, replicate values) [3]: 107.44 and 106.681 and 107.657 and 104.164 and 95.5823 and 98.4941 and 57.1014 and 42.1437 and 64.5278 and 21.8135 and 20.6648 and 21.9136 and 20.2988 and 22.5837 and -3.217 and 20.0515 and 23.307 and 7.747 and 3.643 and 5.208 and 12.2626
EC50 [3]: 26 nM

CC(C)C[C@H](NC(=O)OCc1cc(F)c(F)cc1F)C(=O)N[C@@H](C[C@@H]1CCNC1=O)C(O)S(=O)(=O)O (stereo partly shown) [NK01-48]
observed inactivation rate vs compound concentration (Figure S19, replicate values) [2]: 0.0181 and 0.0442 and 0.0252 and 0.0284 and 0.021 and 0.0128 and 0.0148 and 0.0158 and 0.0136 and 0.0037 and 0.0168 and 0.02 and 0.0021 and 0.0084 and 0.0011
kinact/KI [2]: 5000 M⁻¹ s⁻¹
IC50 [1, 6]: 92 nM
normalized activity, dose-response curve (Figure S16) [1, 7]: 99.5986 and 99.2546
normalized activity, dose-response curve (Figure S16) [1, 8]: 84.289 and 78.0963
normalized activity, dose-response curve (Figure S16) [1, 9]: 92.7179 and 89.3922
normalized activity, dose-response curve (Figure S16) [1, 10]: 76.6628 and 70.7569
normalized activity, dose-response curve (Figure S16) [1, 11]: 79.2431 and 69.9541
normalized activity, dose-response curve (Figure S16) [1, 12]: 62.156 and 55.5619
normalized activity, dose-response curve (Figure S16) [1, 13]: 48.3945 and 50.2294
normalized activity, dose-response curve (Figure S16) [1, 14]: 33.7729 and 21.5023
normalized activity, dose-response curve (Figure S16) [1, 17]: 18.3486 and 12.328
normalized activity, dose-response curve (Figure S16) [1, 15]: 97.1904 and 78.0963
normalized activity, dose-response curve (Figure S16) [1, 16]: 97.1904 and 100
inhibition of SARS-CoV-2 (Figure s17b dose-response, replicate values) [3]: 125.494 and 126.964 and 86.3185 and 118.605 and 134.4 and 122.016 and 84.6265 and 61.89 and 119.128 and 54.4703 and 35.4275 and 15.416 and 32.4697 and 30.0193 and 47.7694 and 0.4554 and -12.5084 and -5.078 and 34.0338 and 10.0006 and 6.443
EC50 [3]: 15 nM

O=C(N[C@@H](CC1CC1)C(=O)N[C@@H](C[C@@H]1CCNC1=O)C(O)S(=O)(=O)O)OCc1cccc(Cl)c1 (stereo partly shown) [NK01-57]
observed inactivation rate vs compound concentration (Figure S19, replicate values) [2]: 0.0175 and 0.0065 and 0.0112 and -0.01176 and 0.0254 and -0.00163 and 0.0094 and -0.00166 and -0.05051 and -0.00614 and -0.01353 and -0.00565 and -0.00112 and -0.0108 and -0.00266 and -0.00784 and 0.0038 and -0.0081 and -0.00313 and -0.00276 and 0.0019
IC50 [1, 6]: 13 nM
normalized activity, dose-response curve (Figure S16) [1, 7]: 95.6172 and 86.9248
normalized activity, dose-response curve (Figure S16) [1, 8]: 85.9021 and 78.3053
normalized activity, dose-response curve (Figure S16) [1, 9]: 79.0358 and 66.0336
normalized activity, dose-response curve (Figure S16) [1, 10]: 62.3083 and 48.2104
normalized activity, dose-response curve (Figure S16) [1, 11]: 43.3163 and 27.8305
normalized activity, dose-response curve (Figure S16) [1, 12]: 26.2235 and 13.9518
normalized activity, dose-response curve (Figure S16) [1, 14]: 6.939 and 9.715
normalized activity, dose-response curve (Figure S16) [1, 17]: 9.934 and 9.2038
normalized activity, dose-response curve (Figure S16) [1, 15]: 107.889 and 102.703
normalized activity, dose-response curve (Figure S16) [1, 16]: 100 and 101.315
inhibition of SARS-CoV-2 (Figure s17b dose-response, replicate values) [3]: 104.54 and 74.4176 and 64.8123 and 55.4072 and 79.8077 and 89.5745 and 61.4462 and 18.0183 and 12.437 and -10.4634 and -16.0501 and 3.693 and 24.8584 and -12.4097 and 6.795 and 29.8589 and -3.6952 and 33.5228 and 9.378 and -5.3463 and 36.5619
EC50 [3]: 92 nM

CSc1ncccc1C#N [NT-1-21]
Normalized SARS-CoV-2 3CL protease activity [1, 4]: 1.059 and 1.079 and 0.9766

CS(=O)(=O)c1ncccc1C#N [NT-1-24]
Normalized SARS-CoV-2 3CL protease activity [1, 4]: 0.9913 and 0.611 and 0.8892

CS(=O)(=O)c1nc(C(F)(F)F)ccc1C#N [NT-1-32]
Normalized SARS-CoV-2 3CL protease activity [1]: 0.9191 and 0.9056 and 0.7525
